In patent US11479536B1 (King Abdulaziz University, priority 2022, dated 2022):
≈ marks a conversion by molar mass, not a printed value.

Tests used:
CYP2C9 = molecular target: T1, CYP2C9 (Homo sapiens, UniProt P11712); test: Inhibition assay of human CYP450 enzymes, 2C9; assay type: in vitro ADME
T1 construct: purchased Fisher Scientific; host or cells: insect supersomes
Method: The two compounds MAK-1 and MAK-6 were assessed for its ability to inhibit the three major human CYP450 enzymes, 3A4, 2D6 and 2C9. Assays were run in triplicate. Expressed enzymes in insect supersomes (Fisher Scientific, Waltham, Mass.) were used to minimize non-specific binding and membrane partitioning issues (McMasters et al., 2007). The 3A4 assay uses testosterone as a substrate and analysis was performed by LC/MS/MS on a Waters Xevo TQ instrument as described above using positive electrospray ionization. Assay acceptance criteria was 20% for all standards and 25% for the LLOQ. The 2D6 and 2C9 assays use fluorescent substrates (3-[2-(N,N-diethylamino)ethyl]-7-methoxy-4-methylcoumarin for 2D6; 7-methoxy-4-(trifluoromethyl)coumarin for 2C9) and were analyzed on an Envision plate reader. GraphPad® Prism v 5.04 was used for nonlinear fitting of data to generate IC50 values.

T47D spheroids [1] = test: Reactive oxygen species (CellROX) assay, T47D spheroids; assay type: cell-based, human; settings: 48 h treatment, CellROX Green
Method: The CELLROX (Invitrogen) assay was used to measure the level of reactive oxygen species (ROS) in live cells. […] The technique was used to investigate the capability of tested compounds to induce intracellular ROS. After forming the spheroids for 48 hours and treating them for additional 48 hours with MAK compound, spheroids were incubated in culture medium with 500 nM CellROX for 60 minutes at 37° C. in presence of 5% CO2, and the samples were immediately analyzed on flow cytometry using 488-nm excitation for the CellROX® Green.

[2] = Maximum kinetic aqueous solubility; assay type: physicochemical; settings: phosphate buffer with 2% DMSO, kinetic from dmso stock, 2% DMSO/PBS, pH 7.4, read-out: maximum kinetic aqueous solubility (saturation)
Method: Solubility assays were performed using Millipore MultiScreen® HTS-PFC Filter Plates designed for solubility assays (EMD Millipore, Billerica, Mass.). Assays were run in triplicate. The 96-well plates consist of two chambers separated by a filter. Liquid handling was performed using JANUS® Verispan and MTD workstations (Perkin Elmer, Waltham, Mass.). 4 μL of MAK-1 or MAK-6 solution (10 mM in DMSO) was added to 196 μL of phosphate buffer (45 mM potassium phosphate, 45 mM sodium acetate, 45 mM ethanolamine, pH=7.4) in the top chamber to give a final DMSO concentration of 2% and a theoretical drug concentration of 200 μM. Plates were gently shaken for 90 min and then subjected to vacuum. Insoluble drug is captured on the filter. 160 μL of the filtrate is transferred to 96-well Griener UV Star® analysis plates (Sigma-Aldrich, St. Louis, Mo.) containing 40 μL of acetonitrile. The test compound concentration in the filtrate is measured by UV absorbance on a Spectromax® Plus microplate reader (Molecular Devices, Sunnyvale, Calif.) using Softmax Pro software v.5.4.5. Absorbances at 5 wavelengths (280, 300, 320, 340, and 360 nm) were summed to generate the UV signal. Standard curves were generated by adding 4 μL of five concentrations of test compound in DMSO to 40 μL of acetonitrile in UV Star plates followed by 156 μL of the appropriate solubility medium. […]

T47D spheroids [3] = test: Cytotoxicity assay (MTT) in spheroid culture, T47D; assay type: cell-based, human; settings: for IC50: Homo sapiens, T47D, 3D spheroid model, 48 h, MTT; for reduction of spheroid size: T47D spheroids treated at IC50 for 48 h, vs control
Method: 1×10^4 cells of each cell line (MCF7 and T47D) were seeded into ultra-low attachment 96 well plate at 37° C. and grown for 48 hours in DMEM media to result in the formation of spheroids. Then, the cells were subjected to the different treatment conditions before performing the assays.
The cytotoxic effects of MAK compounds were assessed against MCF7 and T47D cell lines using MTT cell viability assay. The cells were treated for 48 hours with different concentrations of each MAK compound and the control cells were subjected to the vehicle (0.1% DMSO). Then, 10% of 5 mg/mL MTT was added to each well containing treated or control cells, and mixture was incubated at 37° C. for 3 hours. After that, the MTT-containing media was replaced with 100 μL DMSO and incubated for 10 minutes at room temperature before measuring the absorbance for each well at 570 nm. According to the measured absorbance, the IC50 was calculated for each compound. All the experiments were performed in biological and experimental replicates.

[4] = Stability in mouse plasma; assay type: in vitro ADME; settings: 37° C., duration of the assay (5 h)
Method: The assay is conducted at 37° C. in triplicate. Test compounds or procaine (positive control) are tested at a final concentration of 1 μM in either 2.5% DMSO/CD-1 mouse plasma (Innovative Research, Novi, Mich.; sodium heparin added as anticoagulant; pH adjusted to 7.4 with 2N HCl on day of use) or 2.5% DMSO/PBS (pH 7.4: 136.9 mM NaCl, 2.68 mM KCl, 8.1 mM Na2HPO4, 1.47 mM KH2PO4, 0.9 mM CaCl2, 0.49 mM MgCl2). At seven time points, reaction mixture aliquots were transferred to 96-shallow well stop plates on ice containing acetonitrile with 0.1 μM propafenone. Samples were analyzed by LC/MS/MS on a Waters Xevo TQ instrument as described above using positive electrospray ionization. Assay acceptance criteria was 20% for all standards and 25% for the LLOQ. GraphPad® Prism v. 5.04 was used for nonlinear fitting of data to generate t1/2 values.

HL60 cell line = test: Cell viability assay of HL60 cell line (CellTiter-Blue); assay type: cell-based, human; settings: HL60, 48 h incubation; read-out: IC50 against leukemia cell lines HL60
Method: HL60, K562, MV4-11 and NB4 were purchased from CLS Cell Line Service GmbH (Eppelheim, Germany). All cell lines were cultured in RPMI-1640 medium supplemented with 10% fetal bovine serum (FBS) (Thermo Fisher Scientific) and 0.1% ciprofloxacin (2.5 mg/ml; Cipla Limited; Mumbai, India), and were maintained at 37° C. in the presence of 21% O2 and 5% CO2.
Cell viability was determined using the CellTiter®-Blue Cell Viability Assay kit (Promega, Madison, Wis., USA). Approximately 10^4 cells were counted and plated in a 96-well plate in the presence of test compounds ranging from 0.01 to 10 or 20 μM in triplicate and were incubated for 48 h at 37° C. in a humidified incubator. After the incubation period was complete, 20 μL of CellTiter®-Blue Cell Viability Assay reagent was added to each well and incubated for additional 2 h for the development of florescence. Florescence was measured at Ex/Em 540/590 on SpectraMax® i3 Multi-Mode microplate reader (Molecular Devices, LLC; San Jose, Calif., USA) and plotted against drug concentration to determine the IC50 of the test compounds. The IC50 was obtained by non-linear regression model using GraphPad Prism 6.07 (GraphPad Software, Inc, USA).

T1 sequence (P11712 whole entry): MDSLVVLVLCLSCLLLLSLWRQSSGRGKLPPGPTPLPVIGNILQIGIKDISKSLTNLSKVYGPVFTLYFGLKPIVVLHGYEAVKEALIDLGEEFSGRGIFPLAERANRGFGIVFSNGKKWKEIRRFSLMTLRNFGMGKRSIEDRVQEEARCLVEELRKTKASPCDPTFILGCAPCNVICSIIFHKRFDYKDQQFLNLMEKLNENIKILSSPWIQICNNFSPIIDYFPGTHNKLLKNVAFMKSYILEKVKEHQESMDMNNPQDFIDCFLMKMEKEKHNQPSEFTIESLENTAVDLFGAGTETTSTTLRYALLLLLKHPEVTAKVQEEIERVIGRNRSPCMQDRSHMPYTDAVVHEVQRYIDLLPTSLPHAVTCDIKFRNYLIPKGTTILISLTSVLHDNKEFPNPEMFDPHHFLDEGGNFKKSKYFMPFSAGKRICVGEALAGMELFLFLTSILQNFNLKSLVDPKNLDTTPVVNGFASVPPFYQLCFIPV

SMILES	inhibition of CYP2C9 (CYP2C9; concentration not given)	ROS level, treatment vs control (T47D spheroids [1])	solubility kinetic at 90 min [2]	IC50 (T47D spheroids [3])	reduction of spheroid size (T47D spheroids [3])	stability in mouse plasma [4]	inhibition of CYP2C9 (CYP2C9; concentrations up to 10 μM)	IC50 (HL60 cell line)
O=C(Cc1ccc(NC(=O)c2cccc(Cl)c2)cn1)NCc1ccccc1 [MAK-6, N-(6-(2-(benzylamino)-2-oxoethyl)pyridin-3-yl)-3-chlorobenzamide]	did not display any inhibitory activity	6%	3.7 µM (≈ 1.41 µg/mL)	7.29 ± 0.085 µM	noticeable reduction			
COc1cccc(C(=O)Nc2ccc(CC(=O)NCc3ccccc3)cc2)c1 [MAK-1, N-(4-(2-(benzylamino)-2-oxoethyl)phenyl)-3-methoxybenzamide]		4%	9.4 µM (≈ 3.52 µg/mL)	13.9 ± 0.095 µM	noticeable reduction	stable	no inhibition	3.27 ± 0.15 µM
